Test [1] deals with T1, human matrix metalloproteinase-9 (MMP-9; gelatinase B) (Homo sapiens, UniProt P14780).
T1 construct: from tissue; host or cells: human buffy coat (blood leukocytes)
The experiment in a line: Inhibition of human matrix metalloproteinase-9 (gelatinase B). In kind it is biochemical. The conditions noted are these: trypsin-activated native MMP-9 from human buffy coat; for IC50: read-out: MMP-9 (50% inhibition). How it is done: Native MMP-9 was reproducibly obtained with reasonable yield and purity from human buffy coat. Buffy coat, to which was added an appropriate volume of 10% (v/v) Triton-X-100 to obtain a final concentration of 0,4% detergent, was shaken on ice for 30 min; then, one volume of twofold-concentrated binding buffer (40 mM Tris-HCl pH 7,5, 10 mM CaCl2, 1 M NaCl, 0,2% (v/v) Triton X-100 was added and the mixture shaken on ice for a further 30 min.
The mixture was then centrifuged for 15 min at 16,000 rpm (30,590×g) in a Kendro SS-34 rotor at 4° C. and the resulting supernatant filtered over glass wool. The filtrate was incubated batchwise with gelatin-agarose equilibrated in binding buffer for 1 h on ice with continuous shaking The MMP-9-bound gelatin-agarose was then loaded into a chromatographic tube and the column washed with at least ten bed volumes of binding buffer, or until no protein was detected by absorbance at 280 nm in the wash buffer. MMP-9 was eluted from the gelatin affinity column by application of two bed volumes of binding buffer containing 5% (v/v) dimethylsulfoxide (DMSO).
The eluate was applied to a gel filtration column of Sephadex G-75 both to exchange buffer and to eliminate small amounts of contaminating MMP-2. The G-75 column was prepared and eluted with Buffer I [20 mM Tris-HCl pH 7,5, 5 mM CaCl2, 100 mM NaCl, 0,1% (v/v) Triton X-100].
The eluted MMP-9 includes the three characterized forms of the enzyme: monomer, homodimer, and heterodimer (complex with lipokalin). The purity of MMP-9 was estimated to be ca. 90%, with the remaining contaminating protein being fibronectin and small amounts of TIMPS.
The latent MMP-9 was activated by a 30-60 min incubation at 37° C. with 1/100 vol trypsin (10 mg ml^−1). The trypsin was subsequently inactivated by addition of the serine proteinase inhibitor phenlymethylsulfonylfluoride (PMSF) or the more specific trypsin inhibitor TLCK.
(§1) The enzymatic cleavage of commercially available synthetic internally quenched fluorigenic peptide substrates such as 7-methylcoumarin-4-yl-acetyl-prolyleucyl-glycyl-leucyl-(dinitrophenyl-L-α,β-diaminopropionyl)-alanyl-arginylamide (Mca-Pro-Leu-Gly-Leu-Dap(Dnp)-Ala-Arg-NH2) at the scissile -Gly-Leu-peptide bond separates the fluorescent Mca group from the dinitrophenol quencher, resulting in a strong linear increase in fluorescence intensity that can be readily measured in a fluorimeter (λexitation328 nm, λemission 393 nm) over the first few minutes of the reaction. The specificity of the assay for matrix metalloproteinases is provided by the type I collagen-derived sequence -Pro-Leu-Gly-Leu- in the synthetic substrate, as well as by the incubation conditions. To test the efficacy of the synthetic collagenase/MMP inhibitors, the residual enzymatic activity remaining after an incubation of enzyme plus different amounts of inhibitor is measured at a fixed enzyme and substrate concentration. For each inhibitor, three test series at different fixed substrate concentrations were carried out. From the time-dependent increase in fluorescence intensity measured, the velocity (v) of the enzymatic activity can be calculated as increase in arbitrary fluorescence intensity units per minute. The inhibition constant Ki is calculated graphically by the method of Dixon (1953) by plotting the reciprocal of the reaction velocity 1/v on the ordinate, and the inhibitor concentration on the abscissa. The x-intercept of the linear plot is defined as minus K1 value.
1984 μl assay buffer (100 mM Tris-HCl pH 7,5, 100 mM NaCl, 10 mM CaCl2, 0,05% Brij 35) • 2 μl inhibitor dissolved in DMSO, or DMSO alone as a solvent control • 4 μl enzyme (MMP-2, MMP-9, or the catalytic domain of MMP-8) • 10 μl Mca-Pro-Leu-Gly-Leu-Dap(Dnp)-Ala-Arg-NH2 in DMSO Method • 1. Incubate buffer, enzyme, and inhibitor for 5 min at room temperature, with stirring. • 2. Start the reaction by adding 10 μl substrate in DMSO • 3. Record the increase in fluorescence intensity over 2 min. […]

Test [2] deals with T2, catalytic domain of human matrix metalloproteinase-8 (MMP-8; neutrophil collagenase) (Homo sapiens, UniProt P22894).
T2 construct: express heterologously only the catalytic domain, rather than the entire MMP-8, in Escherichia coli; made in house; host or cells: Escherichia coli
The experiment in a line: Inhibition of catalytic domain of human MMP-8, fluorimetric assay, Dixon plot. The class given is biochemical. The note with it: recombinant catalytic domain, Mca-Pro-Leu-Gly-Leu-Dap(Dnp)-Ala-Arg-NH2 substrate.
From the text: The catalytic domain of MMP-8 was chosen as a further test enzyme because of its high stability and constitutive activity, obviating the need for enzymatic or chemical activation, which is a well-known source of error, e.g. the commonly used organomercurial compounds used to activate pro-MMPs may interfere in subsequent assays or affect the activity of the enzyme, leading to erroneous interpretation of results. The cloning strategy was designed to express heterologously only the catalytic domain, rather than the entire MMP-8, in Escherichia coli. With the so-constructed expressed catalytic domain, we obtained a stable enzymatically active, highly pure enzyme that is well suited for routine investigation of the efficacy of the synthetic inhibitors and provides highly reproducible test results.
The cloning and expression of the recombinant catalytic domain of MMP-8 follows the protocol developed by Schnierer et al. (Schnierer, S., Kleine, T., Gote, T., Hilleman, A., Knäuper, V., and Tschesche, H., 1993, The recombinant catalytic domain of human neutrophil collagenase lacks type I collagen substrate specificity, Biochem. Biophys. Res. Commun. 191, 319-326).
as §1
1984 μl assay buffer (100 mM Tris-HCl pH 7,5, 100 mM NaCl, 10 mM CaCl2, 0,05% Brij 35) • 2 μl inhibitor dissolved in DMSO, or DMSO alone as a solvent control • 4 μl enzyme (MMP-2, MMP-9, or the catalytic domain of MMP-8) • 10 μl Mca-Pro-Leu-Gly-Leu-Dap(Dnp)-Ala-Arg-NH2 in DMSO Method • 1. Incubate buffer, enzyme, and inhibitor for 5 min at room temperature, with stirring. • 2. Start the reaction by adding 10 μl substrate in DMSO • 3. Record the increase in fluorescence intensity over 2 min. Confirmation of the Inhibitory Activity by Protein Zymographic Analysis

T1 sequence (P14780 107-707 limits assumed): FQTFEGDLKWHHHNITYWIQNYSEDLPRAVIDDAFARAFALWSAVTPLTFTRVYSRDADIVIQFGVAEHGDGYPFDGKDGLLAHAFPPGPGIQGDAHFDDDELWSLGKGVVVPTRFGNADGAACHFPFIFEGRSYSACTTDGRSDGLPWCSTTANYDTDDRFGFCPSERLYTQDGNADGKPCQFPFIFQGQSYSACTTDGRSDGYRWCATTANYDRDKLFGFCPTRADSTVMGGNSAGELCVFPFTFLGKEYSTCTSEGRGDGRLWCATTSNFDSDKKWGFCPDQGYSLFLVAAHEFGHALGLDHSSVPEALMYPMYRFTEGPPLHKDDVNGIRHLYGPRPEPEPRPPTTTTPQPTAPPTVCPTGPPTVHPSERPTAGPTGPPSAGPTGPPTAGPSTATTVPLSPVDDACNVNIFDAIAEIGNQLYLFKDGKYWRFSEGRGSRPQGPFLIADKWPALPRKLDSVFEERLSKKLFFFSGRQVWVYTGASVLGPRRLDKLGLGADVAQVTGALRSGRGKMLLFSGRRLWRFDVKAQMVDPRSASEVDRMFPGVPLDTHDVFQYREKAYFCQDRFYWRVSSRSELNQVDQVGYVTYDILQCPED
T2 sequence (P22894 100-262 limits assumed): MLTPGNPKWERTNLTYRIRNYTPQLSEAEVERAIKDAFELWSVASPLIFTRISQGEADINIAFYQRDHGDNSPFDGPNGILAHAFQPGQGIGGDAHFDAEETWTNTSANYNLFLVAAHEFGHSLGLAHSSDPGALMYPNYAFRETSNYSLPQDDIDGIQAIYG

`CC(CCS)n1c(=O)[nH]c2ccccc2c1=O` (racemic) [Example 18, (R,S)-3-[3-(1-methyl)-mercaptopropyl]-chinazolin-2,4(1H,3H)-dione]: the IC50 in test [1] worked out at 10 µM. Moreover, the Ki in test [2] stood at 6 µM.

In the case of `Cn1c(=O)c2sccc2n(CCS)c1=O` [Example 17, 1-(2-mercaptoethyl)-3-methyl-thieno[3,2-d]-pyrimidine-2,4(1H,3H)-dione], the IC50 in test [1] amounted to 10 µM. The “MMP-8 (Ki value)” value in test [2] was “negative”.

Turning to `O=c1[nH]c(=O)n(CCCS)c2ccccc12` [Example 4, 1-(3-mercaptopropyl)-chinazolin-2,4(1H,3H)-dione], the IC50 in test [1] turned out to be 6 µM. Besides, the inhibition constant Ki in test [2] was 7 µM.

On to `O=c1[nH]c(=O)n(CCS)c2ccccc12` [Example 5, 1-(2-mercaptoethyl)-chinazolin-2,4(1H,3H)-dione], for which the IC50 in test [1] is 12.5 µM. Moreover, the inhibition constant Ki in test [2] worked out at 70 µM.

`Cn1c(=O)c2sccc2n(CCCS)c1=O` [Example 14, 1-(3-mercaptoprop-1-yl)-3-methyl-thieno(3,2-d)-pyrimidin-2,4(1H,3H)-dione]: in test [1], the IC50 is 50 µM. Besides, in test [2], the “MMP-8 (Ki value)” value was “negative”.

For the molecule `CC(S)CCn1c(=O)[nH]c(=O)c2ccccc21` (racemic) [Example 3, (R,S)-1-(3-mercaptobut-1-yl)-chinazolin-2,4(1H,3H)-dione], in test [1], the “MMP-9 (50% inhibition)” value was “negative”. Also, in test [2], the Ki was found to be 38.5 µM.

Consider `Cn1c(=O)c2ccccc2n(CCCS)c1=O` [Example 7, 1-(3-mercaptoprop-1-yl)-3-methyl-chinazolin-2,4(1H,3H)-dione], for which the IC50 in test [1] is 71.4 µM. For the same molecule, the “MMP-8 (Ki value)” value in test [2] is “negative”.

For `O=c1[nH]c2ccccc2c(=O)n1CCCCS` [Example 12, 3-(4-mercaptobut-1-yl)-chinazolin-2,4(1H,3H)-dione], the IC50 in test [1] worked out at 20 µM. Moreover, in test [2], the inhibition constant (Ki) is 11 µM.

Source of the values: patent US6872727B1, “Polycyclic pyrimidine -2,4(1H,3H)-diones with functionalized alkyl residues at the 1- and/or 3-position(s); methods for their synthesis and pharmaceutical preparation” (Privates Institut fur Biomedizinische Forschung und Beratung, priority 1999, dated 2005).
